We go through 1 compound from patent publication US10912741B2, “Prevention of liver cancer with safranal-based formulations” (United Arab Emirates University, priority 2019, dated 2021).

Assay [1] relates to superoxide dismutase (SOD). In words: Superoxide dismutase in liver homogenate, DEN/2-AAF hepatocarcinogenesis model. It is filed as in vivo, albino Wistar rats. The note with it: mean±SEM, 8 rats. The method, then:
The experimental hepatocarcinogenesis model was developed according to a protocol by […] et al. that was adapted for our purposes. To initiate and promote hepatocarcinogenesis, diethylnitrosamine (DEN) and 2-acetylaminofluorene (2-AAF) were used, respectively. For hepatocarcinogenesis initiation in this model, a single DEN dose (200 mg/kg b.wt.) dissolved in saline was injected intraperitoneally. After initiation, all rats underwent one period of 5-days fasting, as mitotic proliferative stimuli. To promote hepatocarcinogenesis, 2-acetylaminofluorene (2-AAF) was introduced in the form of six daily intragastric doses (30 mg/kg in 1% Tween 80); two weeks after DEN treatment. […] at doses of 25 mg/kg by weight (b.wt.) and 50 mg/kg b.wt, was administrated orally to rats. These doses have been reported to suppress chemically-induced oxidative damage in rats. A total of 40 adult male albino Wistar rats were randomly divided into […] (n=8) and were subjected to different treatments. Group 1 (control) was orally administered distilled water (5 ml/kg b.wt.) throughout the experimental duration and were injected with a single dose of saline. Group 2 ([…] only) was subjected to a safranal dose (50 mg/kg b.wt.) through oral administration for the duration of the experimental period. Hepatocarcinogenesis was induced by DEN and promoted by 2-AAF, as reported previously, in group 3 (HCC). […] Glutathione (GSH) content was determined by analyzing liver homogenates, according to the method of Van Dooran et al. The assay depends on measuring yellow 5-thiol-2-nitrobenzoate absorbance at 412 nm. Glutathione-S-transferase (GST) activity was determined using the method of Habig et al. GST catalyzes the conjugation of GSH thiol group with 1-Chloro-2,4-dinitrobenzene (CDNB), which can be measured by determining the increase in absorbance at 340 nm. […] CAT decomposes hydrogen peroxide (H2O2) to oxygen and water; therefore, the activity of CAT was evaluated according to by the exponential decomposition of H2O2 at 240 nm. […] UV-160-Shimadzu recording spectrophotometer was used to record absorbances. […]

In a further assay the test system is ED-1 (macrophages). Briefly: Immunohistochemical staining of liver sections, ED-1 positive cells (macrophages). The class given is in vivo, albino Wistar rats. The following applies: mean±SEM, 8 rats. The method, then:
The experimental hepatocarcinogenesis model was developed according to a protocol by Espandiaria et al. that was adapted for our purposes. To initiate and promote hepatocarcinogenesis, diethylnitrosamine (DEN) and 2-acetylaminofluorene (2-AAF) were used, respectively. For hepatocarcinogenesis initiation in this model, a single DEN dose (200 mg/kg b.wt.) dissolved in saline was injected intraperitoneally. After initiation, all rats underwent one period of 5-days fasting, as mitotic proliferative stimuli. To promote hepatocarcinogenesis, 2-acetylaminofluorene (2-AAF) was introduced in the form of six daily intragastric doses (30 mg/kg in 1% Tween 80); two weeks after DEN treatment.
Safranal at doses of 25 mg/kg by weight (b.wt.) and 50 mg/kg b.wt, was administrated orally to rats. These doses have been reported to suppress chemically-induced oxidative damage in rats. A total of 40 adult male albino Wistar rats were randomly divided into […] (n=8) and were subjected to different treatments. Group 1 (control) was orally administered distilled water (5 ml/kg b.wt.) throughout the experimental duration and were injected with a single dose of saline. Group 2 (Safranal only) was subjected to a safranal dose (50 mg/kg b.wt.) through oral administration for the duration of the experimental period. Hepatocarcinogenesis was induced by DEN and promoted by 2-AAF, as reported previously, in group 3 (HCC). Rats in protective groups (groups 4-5) were treated with low/high doses of saffron-based safranal suspensions, at the beginning of promotion periods and continued for 12 weeks. The low dosage treatment with safranal consisted of 25 mg/kg b.wt., and the high dosage treatment consisted of 50 mg/kg b.wt. The experimental design is illustrated in FIG. 1.
For immunohistochemical staining, mounted sections were immersed in sodium citrate buffer (0.1 M, pH 6) and placed in a water bath for 15 minutes to unmask antigen epitopes. […] Ten fields were randomly selected to quantify positive cells, in individual samples (400×). […]

Setting [2] is: HCC (DEN/2-AAF) rats + safranal high dose 50 mg/kg b.wt. oral, 12 weeks.
Setting [3] is: HCC (DEN/2-AAF) rats + safranal low dose 25 mg/kg b.wt. oral, 12 weeks.
Setting [4] is: safranal alone 50 mg/kg b.wt. oral, no DEN (group 2).

SMILES strings stand for the structures. Marks after values point to notes of the source that are not given here.

As to `CC1=C(C=O)C(C)(C)CC=C1` [Safranal, 2,6,6-trimethylcyclohexa-1,3-diene-1-carbaldehyde], the SOD in assay [1] (setting [2]) is listed as 3.96 ± 0.13 unit/mg protein; in assay [1] (setting [3]) it was 4.02 ± 0.18 unit/mg protein; in assay [1] (setting [4]), 4.05 ± 0.09 unit/mg protein. Moreover, the ED-1 positive cells with ED-1 (macrophages) (setting [2]) is listed as 49.84 ± 2.28^b positive cells/field; with ED-1 (macrophages) (setting [3]) it was 59.19 ± 2.0^a&b positive cells/field; in the assay on ED-1 (macrophages) (setting [4]), 44.33 ± 1.52 positive cells/field.
